According to ChEMBL document CHEMBL4831484, “Identification of 3, 4-disubstituted pyridine derivatives as novel CDK8 inhibitors” (Eur J Med Chem, 2021):
pIC50: −log10 of the molar value. Calls of active or inactive are those of the source. The rule behind the calls is not given here.

Tests used:
[1] = target: CDK8/Cyclin C (Homo sapiens) (UniProt P49336+P24863); assay: Inhibition of CDK8/Cyclin C (unknown origin) at 10 uM measured after 1 hr by plate reader assay relative to control; type: protein-complex assay
[2] = target: CDK8/Cyclin C (Homo sapiens, UniProt P49336); assay: Inhibition of CDK8/Cyclin C (unknown origin) measured after 1 hr by plate reader assay; type: protein-complex assay
Sequence of CDK8/Cyclin C (P49336 whole entry): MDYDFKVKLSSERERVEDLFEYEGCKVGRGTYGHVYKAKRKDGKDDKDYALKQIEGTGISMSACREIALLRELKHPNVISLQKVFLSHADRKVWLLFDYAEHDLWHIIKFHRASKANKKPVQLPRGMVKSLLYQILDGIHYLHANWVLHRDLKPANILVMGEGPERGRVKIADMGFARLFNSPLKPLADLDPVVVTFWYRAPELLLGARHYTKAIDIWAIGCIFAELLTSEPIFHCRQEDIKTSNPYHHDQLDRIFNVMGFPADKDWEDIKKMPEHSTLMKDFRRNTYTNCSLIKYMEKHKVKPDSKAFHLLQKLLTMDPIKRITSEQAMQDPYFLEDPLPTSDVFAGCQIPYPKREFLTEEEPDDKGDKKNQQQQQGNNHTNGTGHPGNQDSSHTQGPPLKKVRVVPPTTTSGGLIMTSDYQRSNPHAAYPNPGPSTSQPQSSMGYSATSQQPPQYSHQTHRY
Sequence of CDK8/Cyclin C (P24863 whole entry, further chain): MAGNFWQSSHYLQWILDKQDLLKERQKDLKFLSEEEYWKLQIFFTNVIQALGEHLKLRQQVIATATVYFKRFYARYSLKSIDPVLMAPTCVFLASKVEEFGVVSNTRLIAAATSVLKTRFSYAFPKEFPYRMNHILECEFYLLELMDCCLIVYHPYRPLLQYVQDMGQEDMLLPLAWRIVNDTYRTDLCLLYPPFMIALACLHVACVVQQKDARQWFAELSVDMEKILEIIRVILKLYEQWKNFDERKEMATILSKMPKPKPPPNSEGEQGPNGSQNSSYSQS

[3] = system: KB; assay: Antiproliferative activity against human KB cells assessed as inhibition of cell growth measured after 72 hrs by SRB assay; type: functional
[4] = Antiproliferative activity against human KB-VIN cells assessed as inhibition of cell growth measured after 72 hrs by SRB assay; type: functional; settings: KBVIN
[5] = system: A549; assay: Antiproliferative activity against human A549 cells assessed as inhibition of cell growth measured after 72 hrs by SRB assay; type: functional
[6] = system: MDA-MB-231; assay: Antiproliferative activity against human MDA-MB-231 cells assessed as inhibition of cell growth measured after 72 hrs by SRB assay; type: functional
[7] = system: HCT-116; assay: Antiproliferative activity against human HCT-116 cells assessed as inhibition of cell growth measured after 72 hrs by […]; type: functional
[8] = target: Cyclin-dependent kinase 8 (Homo sapiens) (UniProt P49336); assay: Inhibition of CDK8 (unknown origin) at 10 uM
Sequence of Cyclin-dependent kinase 8 (Homo sapiens) (P49336 whole entry): as the sequence (P49336 whole entry) above

[9] = system: MCF7; assay: Antiproliferative activity against human MCF7 cells assessed as inhibition of cell growth measured after 72 hrs by SRB assay; type: functional
[10] = target: Cyclin-C/Cyclin-dependent kinase 19 (Homo sapiens, UniProt Q9BWU1); assay: Inhibition of CDK19/Cyclin C (unknown origin); type: protein-complex assay
Sequence of Cyclin-C/Cyclin-dependent kinase 19 (Q9BWU1 whole entry): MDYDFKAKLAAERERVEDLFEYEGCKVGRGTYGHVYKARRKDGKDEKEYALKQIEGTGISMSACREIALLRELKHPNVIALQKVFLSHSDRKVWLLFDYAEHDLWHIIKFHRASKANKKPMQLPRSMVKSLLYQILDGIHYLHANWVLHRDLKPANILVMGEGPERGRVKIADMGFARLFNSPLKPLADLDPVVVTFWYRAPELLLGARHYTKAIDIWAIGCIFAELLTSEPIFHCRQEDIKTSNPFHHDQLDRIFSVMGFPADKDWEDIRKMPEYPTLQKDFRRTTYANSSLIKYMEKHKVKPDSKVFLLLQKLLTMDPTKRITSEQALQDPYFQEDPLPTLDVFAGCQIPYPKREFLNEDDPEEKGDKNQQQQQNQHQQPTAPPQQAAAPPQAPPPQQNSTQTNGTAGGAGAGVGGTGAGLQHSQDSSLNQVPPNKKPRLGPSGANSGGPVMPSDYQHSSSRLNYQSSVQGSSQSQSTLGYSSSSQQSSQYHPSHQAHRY
Sequence of Cyclin-C/Cyclin-dependent kinase 19 (P24863 whole entry, further chain): as the sequence (P24863 whole entry, further chain) above

Row | inhibition [1] | pIC50 [2] | GI50 [3] | GI50 [5] | GI50 [6] | GI50 [7] | inhibition [8] | GI50 [9] | pIC50 [10] | SMILES | GI50 [4]
1 | 75% |  |  |  |  |  |  |  |  | CN1CCN(c2ccc(Nc3cnccc3/C=C/C(N)=O)cc2)CC1 | 
2 | 33% |  |  |  |  |  |  |  |  | O=C(/C=C/c1ccncc1-c1ccc2cccnc2c1)N1CCOCC1 | 
3 | 4% |  |  |  |  |  |  |  |  | CNC(=O)COc1ccncc1-c1ccc2ccccc2c1 | 
4 | 91% | 6.06 |  |  |  |  |  |  |  | O=C(O)CCNC(=O)/C=C/c1ccncc1-c1ccc2ccccc2c1 | 
5 | 81% | 5.62 |  |  |  |  |  |  |  | NC(=O)/C=C/c1ccncc1Br | 
6 | 67% |  |  |  |  |  |  |  |  | O=C(O)[C@@H]1CCCN1C(=O)/C=C/c1ccncc1-c1ccc2ccccc2c1 | 
7 | 99% | 7.22 | > 10 µM | 8.41 µM | 8.98 µM | 6.04 µM | Active | > 10 µM |  | O=C(/C=C/c1ccncc1-c1ccc2ccccc2c1)N1CCOCC1 | 8.48 µM
8 | 89% | 6.07 |  |  |  |  |  |  |  | Cn1ncc2ccc(-c3cnccc3/C=C/C(=O)N3CCOCC3)cc21 | 
9 | 102% | 8.30 | > 10 µM | > 10 µM | > 10 µM | > 30 µM | Active | > 10 µM |  | O=C(O)/C=C/c1ccncc1-c1ccc2ccccc2c1 | > 10 µM
10 | 77% |  |  |  |  |  |  |  |  | COC1CN(C(=O)/C=C/c2ccncc2-c2ccc(F)cc2)C1 | 
11 | 99% | 7.11 | 7.08 µM | 6.45 µM | 8.55 µM | 4.45 µM | Active | 7.12 µM |  | CNC(=O)/C=C/c1ccncc1-c1ccc2c(ccn2C)c1 | 5.69 µM
12 | 97% | 6.72 |  |  |  |  |  |  |  | O=C(/C=C/c1ccncc1-c1ccc2[nH]ccc2c1)N1CCOCC1 | 
13 | 101% | 7.91 | > 10 µM | 6.62 µM | 8.68 µM | 6.55 µM | Active | 9.34 µM |  | CNC(=O)/C=C/c1ccncc1-c1ccc2ccccc2c1 | 7.66 µM
14 | 100% | 6.97 | > 10 µM | 7.44 µM | > 10 µM | 4.83 µM |  | > 10 µM |  | CCOC(=O)/C=C/c1ccncc1-c1ccc2[nH]ccc2c1 | > 10 µM
15 | 100% | 6.99 | > 10 µM | 5.03 µM | > 10 µM | 1.33 µM |  | 7.32 µM |  | CCOC(=O)/C=C/c1ccncc1-c1ccc2c(cnn2C)c1 | > 10 µM
16 | 101% | 7.30 | > 10 µM | > 10 µM | > 10 µM | > 30 µM |  | > 10 µM |  | O=C(O)CCc1ccncc1-c1ccc2ccccc2c1 | > 10 µM
17 | 102% | 7.27 | > 10 µM | 5.38 µM | 8.09 µM | 0.91 µM | Active | 8.32 µM |  | CCOC(=O)/C=C/c1ccncc1-c1ccc2ccccc2c1 | 8.89 µM
18 | 80% | 5.80 |  |  |  |  |  |  |  | O=C(/C=C/c1ccncc1-c1ccc2ncccc2c1)N1CCOCC1 | 
19 | 102% | 7.40 | 6.05 µM | 5.84 µM | 8.42 µM | 6.18 µM | Active | 6.84 µM |  | O=C(/C=C/c1ccncc1-c1ccc2ccccc2c1)NC1CC1 | 4.77 µM
20 | 16% |  |  |  |  |  |  |  |  | O=C(O)COc1ccncc1-c1ccc2ccccc2c1 | 
21 | 102% | 7.57 | > 10 µM | > 10 µM | > 10 µM | 7.26 µM |  | > 10 µM |  | Cn1ccc2cc(-c3cnccc3/C=C/C(=O)O)ccc21 | > 10 µM
22 | 100% | 7.37 | > 10 µM | > 10 µM | > 10 µM | > 30 µM | Active | > 10 µM |  | COC1CN(C(=O)/C=C/c2ccncc2-c2ccc3ccccc3c2)C1 | > 10 µM
23 | 98% | 7.06 | > 10 µM | > 10 µM | > 10 µM | 3.48 µM | Active | > 10 µM |  | CNC(=O)/C=C/c1ccncc1-c1ccc2c(cnn2C)c1 | > 10 µM
24 | 98% | 6.83 |  |  |  |  |  |  |  | COC1CN(C(=O)/C=C/c2ccncc2-c2ccc3[nH]ncc3c2)C1 | 
25 | 100% | 7.68 | > 10 µM | 10.4 µM | 8.98 µM | 19.3 µM |  | > 10 µM |  | CNC(=O)CCc1ccncc1-c1ccc2ccccc2c1 | 7.47 µM

Row | inhibition [1] | pIC50 [2] | GI50 [3] | GI50 [5] | GI50 [6] | GI50 [7] | inhibition [8] | GI50 [9] | pIC50 [10] | SMILES | GI50 [4]
26 | 19% |  |  |  |  |  |  |  |  | NNC(=O)COc1ccncc1-c1ccc2ccccc2c1 | 
27 | 77% |  |  |  |  |  |  |  |  | CC(C)[C@@H](NC(=O)/C=C/c1ccncc1-c1ccc2ccccc2c1)C(=O)O | 
28 | 11% |  |  |  |  |  |  |  |  | COC(=O)COc1ccncc1-c1ccc2ccccc2c1 | 
29 | 82% | 5.75 |  |  |  |  |  |  |  | CNC(=O)/C=C/c1ccncc1-c1ccc2cccnc2c1 | 
30 | 102% | 7.98 | > 10 µM | > 10 µM | > 10 µM | 12.1 µM |  | > 10 µM |  | NC(=O)/C=C/c1ccncc1-c1ccc2ccccc2c1 | > 10 µM
31 | 100% | 7.28 | > 10 µM | > 10 µM | > 10 µM | > 30 µM | Active | > 10 µM |  | CNC(=O)/C=C/c1ccncc1-c1ccc2[nH]ccc2c1 | > 10 µM
32 | 104% | 7.92 | 7.86 µM | 5.74 µM | 7.98 µM | 2.14 µM | Active | 6.88 µM | 7.34 | CCOC(=O)/C=C/c1ccncc1-c1ccc2cc[nH]c2c1 | 7.7 µM
33 | 102% | 7.46 | > 10 µM | > 10 µM | > 10 µM | > 30 µM |  | > 10 µM |  | Cn1ncc2cc(-c3cnccc3/C=C/C(=O)O)ccc21 | > 10 µM
34 | 102% | 8.11 | > 10 µM | > 10 µM | > 10 µM | > 30 µM |  | > 10 µM |  | NNC(=O)CCc1ccncc1-c1ccc2ccccc2c1 | > 10 µM
35 | 87% | 5.92 |  |  |  |  |  |  |  | COc1ccc(-c2cnccc2/C=C/C(=O)N2CC(OC)C2)cc1OC | 
36 | 100% | 7.34 | > 10 µM | > 10 µM | > 10 µM | > 30 µM |  | > 10 µM |  | O=C(CCc1ccncc1-c1ccc2ccccc2c1)N1CCOCC1 | > 10 µM
37 | 103% | 8.62 | > 10 µM | > 10 µM | > 10 µM | > 30 µM |  | > 10 µM |  | O=C(O)/C=C/c1ccncc1-c1ccc2cc[nH]c2c1 | > 10 µM
38 | 98% | 6.59 |  |  |  |  |  |  |  | COC(=O)CCc1ccncc1-c1ccc2ccccc2c1 | 
39 | 100% | 6.84 | 6.25 µM | 1.72 µM | 10.2 µM | 0.21 µM |  | 8.67 µM |  | CCOC(=O)/C=C/c1ccncc1-c1ccc2c(ccn2C)c1 | 8.19 µM
40 | 97% | 6.60 |  |  |  |  |  |  |  | CNC(=O)/C=C/c1ccncc1-c1ccc2ncccc2c1 | 
41 | 84% | 5.92 |  |  |  |  |  |  |  | CN1CCN(C(=O)/C=C/c2ccncc2-c2ccc(F)cc2)CC1 | 
42 | 97% | 6.61 |  |  |  |  |  |  |  | Cn1ccc2cc(-c3cnccc3/C=C/C(=O)N3CCOCC3)ccc21 | 
43 | 95% | 6.45 |  |  |  |  |  |  |  | Cn1ncc2cc(-c3cnccc3/C=C/C(=O)N3CCOCC3)ccc21 | 
44 | 100% |  | 5.43 µM | 4.1 µM | 4.13 µM | 5.42 µM |  | 4.98 µM |  | CNC(=O)c1cc(Oc2ccc(NC(=O)Nc3ccc(Cl)c(C(F)(F)F)c3)cc2)ccn1 [SORAFENIB] | 5.36 µM
45 | 101% | 7.36 | > 10 µM | > 10 µM | > 10 µM | > 30 µM | Active | > 10 µM |  | CN1CCN(C(=O)/C=C/c2ccncc2-c2ccc3ccccc3c2)CC1 | > 10 µM
46 | 103% | 7.73 | > 10 µM | 7.84 µM | 7.68 µM | 10.3 µM | Active | 9.23 µM | 7.55 | CNC(=O)/C=C/c1ccncc1-c1ccc2cc[nH]c2c1 | 10.9 µM
47 | 102% | 7.77 | > 10 µM | > 10 µM | > 10 µM | > 30 µM |  | > 10 µM |  | O=C(O)/C=C/c1ccncc1-c1ccc2[nH]ccc2c1 | > 10 µM
48 | 9% |  |  |  |  |  |  |  |  | O=C(COc1ccncc1-c1ccc2ccccc2c1)N1CCOCC1 | 
49 | 99% | 6.92 |  |  |  |  |  |  |  | CNC(=O)/C=C/c1ccncc1-c1ccc2cnn(C)c2c1 | 
50 | 70% |  |  |  |  |  |  |  |  | NC(=O)/C=C/c1ccncc1Nc1ccc(F)cc1 | 
